Assay results reported in US20130331389A1, “Methods and Compositions for Cardiomyocyte Replenishment by Endogenous and Progenitor Stem Cells” (NATIONAL CHENG KUNG UNIVERSITY, priority 2012, published 2013).

What was measured:
Assay type in all cases: in vivo, mouse
Nkx2.5 = experiment: Quantitative RT-PCR of Nkx2.5 in MI heart and in isolated cardiac Sca-1+ cells
Experimental: (§1) To induce Cre recombination to achieve GFP labeling of cardiomyocytes, tamoxifen (Sigma) was dissolved in sunflower oil (Sigma) at a concentration of 5 mg/ml. The tamoxifen solution was injected intraperitoneally into M/Z mice daily at a dosage of 40 μg per 1 g body weight for 14 days, and the same dosage was injected twice daily for short-term labeling using methods known in the art (Laugwitz, K.-L. et al. Nature 433, 647-653 (2005)). All experimental conditions were optimized prior to the PGE2, indomethacin and TGF-β Type I Receptor Kinase Inhibitor II (ALK5 Inhibitor II, ALK5i, Merck) treatments. The mice treated with PGE2 or PGI2 (Vegiopoulos, A. et al. Science 328, 1158-1161 (2010)) (both from Sigma) were injected intraperitoneally with 3.33 ng of drug per 1 g of body weight dissolved in absolute ethanol twice daily. […]
The total RNA isolated from the ischemic region or remote area of MI hearts was reverse transcribed using the SuperScript III (Invitrogen) system according to the manufacturer's protocol. For quantitative PCR, the SYBR Green reagent (Maestrogen) was used according to the manufacturer's protocol. The analysis of relative gene expression was performed using the 2̂[−delta delta Ct] method and sequence-specific primers designed for semi-quantitative PCR and real-time RT-PCR (FIG. 11). […]

EP2 = experiment: Quantitative RT-PCR of PGE2 receptors at infarct region of MI heart
Experimental: as §1
(§2) The total RNA isolated from the ischemic region or remote area of MI hearts was reverse transcribed using the SuperScript III (Invitrogen) system according to the manufacturer's protocol. For quantitative PCR, the SYBR Green reagent (Maestrogen) was used according to the manufacturer's protocol. The analysis of relative gene expression was performed using the 2̂[−delta delta Ct] method and sequence-specific primers designed for semi-quantitative PCR and real-time RT-PCR (FIG. 11).

CD11b = experiment: Quantitative RT-PCR of myeloid cell marker CD11b in infarct region; details: both young and old mice; day 3 post-infarction
Experimental: as §1, §2

interleukin-10 (IL-10) = experiment: Quantitative RT-PCR of IL-10 at injured region; details: both young and old mice; day 3 after infarction
Experimental: as §1, §2

expression of PGE2 receptor EP2 in hearts after MI (EP2): significantly induced
Compound: CCCCC[C@H](O)/C=C/C1C(O)CC(=O)C1C/C=C\CCCC(=O)O (stereo partly drawn) [PGE2, (5Z,11α,13E,15S)-7-[3-hydroxy-2-(3-hydroxyoct-1-enyl)-5-oxo-cyclopentyl]hept-5-enoic acid]
expression of Nkx2.5 in Sca-1+ cells (Nkx2.5; cardiac Sca-1+ cells isolated on day 3 after injury): elevated
expression of Nkx2.5 in the MI heart (Nkx2.5; young mice, fold change normalized to sham): enhances
CD11b level (CD11b): induced
expression of interleukin-10 (IL-10) (interleukin-10 (IL-10)): enhanced
